We go through eleven compounds from patent publication US12049450B2, “Pyridyloxy-carboxylate derivative and preparation method therefor, herbicidal composition, and use” (Qingdao Kingagroot Chemical Compound Co., Ltd., priority 2018, dated 2024).

What all share (type): in vivo
The test system of series [1] is Abutilon theophrasti. Put plainly: Post-emergence test experiment (greenhouse pot, spray at 2-3 leaf stage). The following applies: 1000 g/ha; post-emergence spray at 2-3 leaf stage; assessed after 3 weeks; fresh weight inhibition rate. In outline:
(§1)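 Weed seeds sown in soil-filled pots in greenhouse, sprayed at 2-3 leaf stage (2 weeks after sowing) with compound in acetone/tween-80 plus methyl oleate emulsible concentrate (1.5 L/ha) diluted in water. Fresh-weight growth inhibition scored after 3 weeks on 0-5 scale (5: >85%, 0: <5%).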

The subject of series [2] is Digitaria sanguinalis. The series is described as above. The following applies: 1000 g/ha; post-emergence spray at 2-3 leaf stage; assessed after 3 weeks; fresh weight inhibition rate. In outline: as §1
The test system of series [3] is Echinochloa crusgalli. The description is as above. The settings on record: for Activity level (growth inhibition rate) Echinochloa crusgalli: 1000 g/ha, post-emergence spray at 2-3 leaf stage, assessed after 3 weeks, fresh weight inhibition rate. An outline of the steps: as §1
Series [4] deals with Galium spurium. The description is as above. The following applies: 1000 g/ha; post-emergence spray at 2-3 leaf stage; assessed after 3 weeks; fresh weight inhibition rate. In outline: as §1
In series [5] the test system is Monochoria vaginalis. Described as above. The settings on record: 1000 g/ha; post-emergence spray at 2-3 leaf stage; assessed after 3 weeks; fresh weight inhibition rate. In outline: as §1
Series [6] concerns Soybean. Put plainly: Spray drift test, application by unmanned gyroplane, soybean field at 10 meters. The following applies: 600 g/ha, gyroplane at 1 m, gentle breeze. As to the method: Broadleaf crops are very sensitive to hormonal herbicides, therefore crop injuries are more likely to occur in case of spray drifting. Tests were conducted in gentle breeze for the compounds of the present invention. The formulation of the compounds of the present invention was applied by DJI unmanned gyroplane with application height of 1 m and water volume of 20 kg/ha. The use rate was 600 g/ha. The active ingredient was dissolved by acetone and diluted to aqueous solution of Tween 80. There's a soybean field at 10 meters from the application area and the height of soybean plants were about 15 cm at the application time.

Series [7] concerns Cyperus iria. Put plainly: Post-emergence test experiment (greenhouse pot, spray at 2-3 leaf stage). The following applies: post-emergence, 100 g/ha, after 3 weeks; resistant to ALS inhibitor herbicides. In outline: as §1
In series [8] the test system is Indica rice. The description is as above. The settings on record: post-emergence, 100 g/ha, after 3 weeks. An outline of the steps: (§2)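 Activity graded levels 0-5 by fresh-weight inhibition (level 5 above 85%, level 0 below 5%), assessed 3 weeks after treatment. Plants grown in greenhouse pots were sprayed post-emergence at 2-3 leaves using acetone/tween-80 solutions with methyl oleate synergist (1.5 L/ha).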

In series [9] the test system is Japonica rice. The description is as above. The settings on record: post-emergence, 100 g/ha, after 3 weeks. An outline of the steps:
as §2

Series [10] concerns Monochoria vaginalis. Briefly: Weed control effect evaluation in rice field soil pot. The following applies: paddy pot, 50 g/ha, 14 days after treatment; resistant to pyrazosulfuron-ethyl and penoxsulam. An excerpt:
The activity level standard of harmful plants destruction (i. e. growth inhibition rate) is as follows: • Level 5: the growth inhibition rate is greater than 85%; • Level 4: the growth inhibition rate is equal to or greater than 60% and less than 85%; • Level 3: the growth inhibition rate is equal to or greater than 40% and less than 60%; • Level 2: the growth inhibition rate is equal to or greater than 20% and less than 40%; • Level 1: the growth inhibition rate is equal to or greater than 5% and less than 20%; • Level 0: the growth inhibition rate is less than 5%;
Transplanted rice safety evaluation and weed control effect evaluation in rice field:
Rice field soil was loaded into a 1/1,000,000 ha pot. The seeds of Monochoria vaginalis were sowed and gently covered with soil, then left to stand still in greenhouse in the state of 0.5-1 cm of water storage. It was kept at 3-4 cm of water storage thereafter. The weeds were treated by dripping the WP or SC water diluents prepared according to the common preparation method of the compounds of the present invention with pipette homogeneously to achieve specified effective amount when Monochoria vaginalis reached 0.5 leaf stage.
The fertility condition of Monochoria vaginalis 14 days and rice 21 days after the treatment of the compound of the invention with the naked eye.

Regarding `CC(Oc1nc(F)c(Cl)c(N)c1Cl)C(=O)SCc1ccc(-c2ccccc2)cc1` (racemic) [Compound 113], the “Activity level (growth inhibition rate) Abutilon theophrasti” value in series [1] is 5 (Level 5: the growth inhibition rate is greater than 85%). Further, the “Activity level (growth inhibition rate) Digitaria sanguinalis” value in series [2] is recorded as 5 (Level 5: the growth inhibition rate is greater than 85%). Besides, the “Activity level (growth inhibition rate) Echinochloa crusgalli” value in series [3] is given as 5 (Level 5: the growth inhibition rate is greater than 85%). For the same compound, the “Activity level (growth inhibition rate) Galium spurium” value in series [4] is reported as 5 (Level 5: the growth inhibition rate is greater than 85%). Further, the “Activity level (growth inhibition rate) Monochoria Vaginalis” value in series [5] was 5 (Level 5: the growth inhibition rate is greater than 85%). Also, the “Soybean, injury level by spray drift” value in series [6] was 0 (Level 0: the growth inhibition rate is less than 5%).

For `COc1cc(OC)nc(Oc2cccc(Oc3nc(OC)cc(OC)n3)c2C(=O)O)n1` [Bispyribac-sodium, reference compound], the “Cyperus iria, activity level (growth inhibition rate)” value in series [7] is 2 (Level 2: the growth inhibition rate is equal to or greater than 20% and less than 40%). Also, the “Echinochloa crusgalli, activity level (growth inhibition rate)” value in [3] (post-emergence, 100 g/ha, after 3 weeks, resistant to ALS inhibitor herbicides) is 1 (Level 1: the growth inhibition rate is equal to or greater than 5% and less than 20%). Further, the “Indica rice, activity level (growth inhibition rate)” value in series [8] is 2 (Level 2: the growth inhibition rate is equal to or greater than 20% and less than 40%). Moreover, the “Japonica rice, activity level (growth inhibition rate)” value in series [9] is 4 (Level 4: the growth inhibition rate is equal to or greater than 60% and less than 85%).

In the case of `CC(Oc1nc(F)c(F)c(N)c1F)C(=O)OCc1ccccc1` (stereo not shown) [Compound 1], in series [1], the “Activity level (growth inhibition rate) Abutilon theophrasti” value was 5 (Level 5: the growth inhibition rate is greater than 85%). Besides, the “Activity level (growth inhibition rate) Digitaria sanguinalis” value in series [2] is reported as 5 (Level 5: the growth inhibition rate is greater than 85%). In addition, the “Activity level (growth inhibition rate) Echinochloa crusgalli” value in series [3] was 5 (Level 5: the growth inhibition rate is greater than 85%). In series [4], the “Activity level (growth inhibition rate) Galium spurium” value was 5 (Level 5: the growth inhibition rate is greater than 85%). The “Activity level (growth inhibition rate) Monochoria Vaginalis” value in series [5] is 5 (Level 5: the growth inhibition rate is greater than 85%). The “Soybean, injury level by spray drift” value in series [6] is listed as 0 (Level 0: the growth inhibition rate is less than 5%).

With `CC(Oc1nc(Cl)c(Cl)c(N)c1Cl)C(=O)OCc1ccccc1` (stereo not shown) [Compound 2], the “Activity level (growth inhibition rate) Abutilon theophrasti” value in series [1] is given as 5 (Level 5: the growth inhibition rate is greater than 85%). Besides, in series [2], the “Activity level (growth inhibition rate) Digitaria sanguinalis” value was 5 (Level 5: the growth inhibition rate is greater than 85%). In addition, the “Activity level (growth inhibition rate) Echinochloa crusgalli” value in series [3] was 5 (Level 5: the growth inhibition rate is greater than 85%). Moreover, in series [4], the “Activity level (growth inhibition rate) Galium spurium” value is recorded as 5 (Level 5: the growth inhibition rate is greater than 85%). In series [5], the “Activity level (growth inhibition rate) Monochoria Vaginalis” value was 5 (Level 5: the growth inhibition rate is greater than 85%). Further, in [6], the “Soybean, injury level by spray drift” value is recorded as 0 (Level 0: the growth inhibition rate is less than 5%).

For `CC(Oc1ncc(Cl)c(N)c1Cl)C(=O)OCc1ccccc1` (stereo not shown) [Compound 3], the “Activity level (growth inhibition rate) Abutilon theophrasti” value in series [1] was 5 (Level 5: the growth inhibition rate is greater than 85%). The “Activity level (growth inhibition rate) Digitaria sanguinalis” value in series [2] is 5 (Level 5: the growth inhibition rate is greater than 85%). For the same compound, the “Activity level (growth inhibition rate) Echinochloa crusgalli” value in [3] is recorded as 5 (Level 5: the growth inhibition rate is greater than 85%). For the same compound, the “Activity level (growth inhibition rate) Galium spurium” value in [4] is listed as 5 (Level 5: the growth inhibition rate is greater than 85%). The “Activity level (growth inhibition rate) Monochoria Vaginalis” value in [5] is on record as 5 (Level 5: the growth inhibition rate is greater than 85%). The “Soybean, injury level by spray drift” value in [6] is reported as 0 (Level 0: the growth inhibition rate is less than 5%).

With `Nc1c(Cl)c(F)nc(OC(Cc2ccccc2)C(=O)OCc2ccccc2)c1Cl` (stereo not shown) [Compound 53], in [1], the “Activity level (growth inhibition rate) Abutilon theophrasti” value is given as 5 (Level 5: the growth inhibition rate is greater than 85%). For the same compound, in series [4], the “Activity level (growth inhibition rate) Galium spurium” value was 5 (Level 5: the growth inhibition rate is greater than 85%). The “Activity level (growth inhibition rate) Monochoria Vaginalis” value in series [5] is given as 5 (Level 5: the growth inhibition rate is greater than 85%). Further, in [6], the “Soybean, injury level by spray drift” value was 0 (Level 0: the growth inhibition rate is less than 5%).

As to `Nc1c(Cl)c(F)nc(OC(C(=O)OCc2ccccc2)c2cccs2)c1Cl` (stereo not shown) [Compound 54], the “Activity level (growth inhibition rate) Abutilon theophrasti” value in series [1] was 5 (Level 5: the growth inhibition rate is greater than 85%). Also, the “Activity level (growth inhibition rate) Galium spurium” value in series [4] is given as 5 (Level 5: the growth inhibition rate is greater than 85%). Moreover, in series [5], the “Activity level (growth inhibition rate) Monochoria Vaginalis” value is 5 (Level 5: the growth inhibition rate is greater than 85%). In [6], the “Soybean, injury level by spray drift” value is given as 0 (Level 0: the growth inhibition rate is less than 5%).

Turning to `CC(Oc1nc(F)c(Cl)c(N)c1Cl)C(=O)OCc1cc(C(F)(F)F)ccc1F` (stereo not shown) [Compound 82], the “Activity level (growth inhibition rate) Abutilon theophrasti” value in series [1] is 5 (Level 5: the growth inhibition rate is greater than 85%). In addition, the “Activity level (growth inhibition rate) Digitaria sanguinalis” value in series [2] is listed as 5 (Level 5: the growth inhibition rate is greater than 85%). Moreover, in series [3], the “Activity level (growth inhibition rate) Echinochloa crusgalli” value is given as 5 (Level 5: the growth inhibition rate is greater than 85%). Also, the “Activity level (growth inhibition rate) Galium spurium” value in series [4] is reported as 5 (Level 5: the growth inhibition rate is greater than 85%). In [5], the “Activity level (growth inhibition rate) Monochoria Vaginalis” value was 5 (Level 5: the growth inhibition rate is greater than 85%). Besides, the “Soybean, injury level by spray drift” value in series [6] is 0 (Level 0: the growth inhibition rate is less than 5%).

For `CC(Oc1nc(F)c(Cl)c(N)c1Cl)C(=O)OCc1c(F)ccc(F)c1F` (stereo not shown) [Compound 83], in series [1], the “Activity level (growth inhibition rate) Abutilon theophrasti” value was 5 (Level 5: the growth inhibition rate is greater than 85%). Moreover, the “Activity level (growth inhibition rate) Digitaria sanguinalis” value in [2] is 5 (Level 5: the growth inhibition rate is greater than 85%). Moreover, the “Activity level (growth inhibition rate) Echinochloa crusgalli” value in series [3] was 5 (Level 5: the growth inhibition rate is greater than 85%). In series [4], the “Activity level (growth inhibition rate) Galium spurium” value is recorded as 5 (Level 5: the growth inhibition rate is greater than 85%). Further, the “Activity level (growth inhibition rate) Monochoria Vaginalis” value in [5] is 5 (Level 5: the growth inhibition rate is greater than 85%). For the same compound, the “Soybean, injury level by spray drift” value in series [6] is recorded as 0 (Level 0: the growth inhibition rate is less than 5%).

For `CC(Oc1nc(F)c(Cl)c(NCc2ccco2)c1Cl)C(=O)OCc1ccccc1` (stereo not shown) [Compound 193], the “Activity level (growth inhibition rate) Abutilon theophrasti” value in [1] is 5 (Level 5: the growth inhibition rate is greater than 85%). For the same compound, the “Activity level (growth inhibition rate) Digitaria sanguinalis” value in series [2] was 5 (Level 5: the growth inhibition rate is greater than 85%). Also, the “Activity level (growth inhibition rate) Echinochloa crusgalli” value in series [3] is 5 (Level 5: the growth inhibition rate is greater than 85%). Also, the “Activity level (growth inhibition rate) Galium spurium” value in [4] is given as 5 (Level 5: the growth inhibition rate is greater than 85%). Besides, the “Activity level (growth inhibition rate) Monochoria Vaginalis” value in [5] was 5 (Level 5: the growth inhibition rate is greater than 85%). Moreover, the “Soybean, injury level by spray drift” value in series [6] is reported as 0 (Level 0: the growth inhibition rate is less than 5%).

Consider `COc1cnc(OC)n2nc(NS(=O)(=O)c3c(OCC(F)F)cccc3C(F)(F)F)nc12` [Penoxsulam, reference compound], for which the “Monochoria Vaginalis, activity level” value in [10] was 1 (Level 1: the growth inhibition rate is equal to or greater than 5% and less than 20%).
